System: CF-1 male albino mice (MES-induced seizure)
Assay: Maximal Electroshock Test (MES), anticonvulsant activity
Type: in vivo
Details: for MES @ 300 mpk: (number of mice with full body tonic extension prevented)/(total number of mice tested): 300 mpk oral
Description: Anticonvulsant activity was determined using the MES test, run according to the procedure described in detail below. Swinyard E A, Woodhead J H, White H S, Franklin M R. Experimental selection, quantification, and evaluation of anticonvulsants. In Levy R H, et al., eds. Antiepileptic Drugs. 3rd ed. New York: Raven Press, 1989:85-102
CF-1 male albino mice (25-35 g) were fasted for 16 hours before testing. Mice were randomly selected into control and test groups, with the animals dosed with vehicle or test compound, at varying concentrations, respectively. On the study date, at 30 minutes prior to shock, the mice were orally dosed with vehicle (0.5% methylcellulose) or test compound (100-300 mg/kg). Seizures were induced by trans-corneal electric shock using a 60-Hz alternating current, 50 mA, delivered for 0.2 sec. The mice in the test groups were subjected to electrical stimulus at time intervals between 15 minutes and 4 hours following administration of test compound. […] The test was complete when the entire course of the convulsion has been observed (typically, less than 1 minute after electrical stimulation), and the mice were then immediately euthanized by carbon dioxide inhalation.
Abolition of the full body tonic extensor component of the seizure was taken as the endpoint of the test. […] The ED50 value of the test compound (calculated when appropriate) was the calculated dose required to block the hind limb tonic-extensor component of the MES-induced seizure in 50% of the rodents tested. A probit analysis was used to calculate the ED50 and 95% fiducial limits (FL).
Representative compounds of the present invention were tested according to the procedure described above, with results as listed in Table 3 below. Results are listed as (number of mice with full body tonic extension prevented)/(total number of mice tested) (@ a given time).

[1] = 100 mpk oral, 0.5 h after dosing

NS(=O)(=O)NCc1csc2ccccc12 [Compound 1, N-(benzo[b]thien-3-ylmethyl)-sulfamide]
MES @ 100 mpk: (number of mice with full body tonic extension prevented)/(total number of mice tested) [1]: 1/5 (0.5 h)
MES @ 100 mpk: (number of mice with full body tonic extension prevented)/(total number of mice tested) (100 mpk oral, 2 h after dosing): 3/5 (2 h)
MES @ 100 mpk: (number of mice with full body tonic extension prevented)/(total number of mice tested) (100 mpk oral, 4 h after dosing): 2/5 (4 h)

Cn1cc(CNS(N)(=O)=O)c2ccccc21 [Compound 7, N-[(1-methyl-1H-indol-3-yl)methyl]-sulfamide]
MES @ 100 mpk (result in words) (100 mpk oral, time not stated): inactive
MES @ 300 mpk: (number of mice with full body tonic extension prevented)/(total number of mice tested) (0.5 hr after dosing): 5/5 (0.5 hr)
MES @ 300 mpk: (number of mice with full body tonic extension prevented)/(total number of mice tested) (2 hr after dosing): 0/5 (2 hr)
MES @ 300 mpk: (number of mice with full body tonic extension prevented)/(total number of mice tested) (4 hr after dosing): 0/5 (4 hr)

Cc1oc2ccccc2c1CNS(N)(=O)=O [Compound 13, N-[(2-methyl-3-benzofuranyl)methyl]-sulfamide]
MES @ 100 mpk: (number of mice with full body tonic extension prevented)/(total number of mice tested) [1]: 4/5 (0.5 h)
MES @ 100 mpk: (number of mice with full body tonic extension prevented)/(total number of mice tested) (100 mpk oral, 2 h after dosing): 0/5 (2 h)
MES @ 100 mpk: (number of mice with full body tonic extension prevented)/(total number of mice tested) (100 mpk oral, 4 h after dosing): 0/5 (4 h)

NS(=O)(=O)NCc1csc2ccc(Br)cc12 [Compound 15, N-[(5-bromobenzo[b]thien-3-yl)methyl]-sulfamide]
MES @ 300 mpk: (number of mice with full body tonic extension prevented)/(total number of mice tested) (0.5 hr after dosing): 0/3 (0.5 hr)
MES @ 300 mpk: (number of mice with full body tonic extension prevented)/(total number of mice tested) (2 hr after dosing): 0/3 (2 hr)
MES @ 300 mpk: (number of mice with full body tonic extension prevented)/(total number of mice tested) (4 hr after dosing): 1/3 (4 hr)

NS(=O)(=O)NCc1csc2cccc(Br)c12 [Compound 17, N-[(4-bromobenzo[b]thien-3-yl)methyl]-sulfamide]
MES @ 300 mpk: (number of mice with full body tonic extension prevented)/(total number of mice tested) (0.5 hr after dosing): 0/3 (0.5 hr)
MES @ 300 mpk: (number of mice with full body tonic extension prevented)/(total number of mice tested) (2 hr after dosing): 0/3 (2 hr)
MES @ 300 mpk: (number of mice with full body tonic extension prevented)/(total number of mice tested) (4 hr after dosing): 1/3 (4 hr)

NS(=O)(=O)NCc1csc2c(F)cccc12 [Compound 18, N-[(7-fluorobenzo[b]thien-3-yl)methyl]-sulfamide]
MES @ 300 mpk: (number of mice with full body tonic extension prevented)/(total number of mice tested) (0.5 hr after dosing): 0/3 (0.5 hr)
MES @ 300 mpk: (number of mice with full body tonic extension prevented)/(total number of mice tested) (2 hr after dosing): 2/3 (2 hr)
MES @ 300 mpk: (number of mice with full body tonic extension prevented)/(total number of mice tested) (4 hr after dosing): 0/3 (4 hr)

— patent US8283478B2, “Process for preparation of sulfamide derivatives” (Janssen Pharmaceutica NV, priority 2005, dated 2012)
